Data published in patent publication US9809623B2, “α4β7 peptide monomer and dimer antagonists” (Protagonist Therapeutics, Inc., priority 2014, dated 2017).
pIC50: −log10 of the molar value. Where two headings read alike, the source gives them in different places. Numbered stars: 1 amine (or outer) side, 2 acyl side, 3 side chain; on linkers, the order of the positions; unused ones are H or OH. Bridge positions count the residues as written; N and C are the ends. Square brackets hold non-standard residues; d marks the D form. Peptide text beside a SMILES is read from it. I, II: the chains in the order shown. Phe(4-tBu) = CC(C)(C)c1ccc(C[C@H](N)C(=O)O)cc1; Diglycolyl = O=C(COCC(=O)[*:2])[*:1]; NMeR = CN[C@@H](CCCNC(=N)N)C(=O)O; β3hE = N[C@@H](CCC(=O)O)CC(=O)O; Pen = CC(C)(S)[C@H](N)C(=O)O

Columns and labels:
α4β1 = α4β1 (Homo sapiens, UniProt P05556+P13612); assay: α4β1-VCAM Cell Adhesion Assay (Jurkat E6.1 human cells); format: cell-based; parameters: host or cells: Jurkat E6.1 human T cells
Sequence of α4β1 (P13612 34-1032): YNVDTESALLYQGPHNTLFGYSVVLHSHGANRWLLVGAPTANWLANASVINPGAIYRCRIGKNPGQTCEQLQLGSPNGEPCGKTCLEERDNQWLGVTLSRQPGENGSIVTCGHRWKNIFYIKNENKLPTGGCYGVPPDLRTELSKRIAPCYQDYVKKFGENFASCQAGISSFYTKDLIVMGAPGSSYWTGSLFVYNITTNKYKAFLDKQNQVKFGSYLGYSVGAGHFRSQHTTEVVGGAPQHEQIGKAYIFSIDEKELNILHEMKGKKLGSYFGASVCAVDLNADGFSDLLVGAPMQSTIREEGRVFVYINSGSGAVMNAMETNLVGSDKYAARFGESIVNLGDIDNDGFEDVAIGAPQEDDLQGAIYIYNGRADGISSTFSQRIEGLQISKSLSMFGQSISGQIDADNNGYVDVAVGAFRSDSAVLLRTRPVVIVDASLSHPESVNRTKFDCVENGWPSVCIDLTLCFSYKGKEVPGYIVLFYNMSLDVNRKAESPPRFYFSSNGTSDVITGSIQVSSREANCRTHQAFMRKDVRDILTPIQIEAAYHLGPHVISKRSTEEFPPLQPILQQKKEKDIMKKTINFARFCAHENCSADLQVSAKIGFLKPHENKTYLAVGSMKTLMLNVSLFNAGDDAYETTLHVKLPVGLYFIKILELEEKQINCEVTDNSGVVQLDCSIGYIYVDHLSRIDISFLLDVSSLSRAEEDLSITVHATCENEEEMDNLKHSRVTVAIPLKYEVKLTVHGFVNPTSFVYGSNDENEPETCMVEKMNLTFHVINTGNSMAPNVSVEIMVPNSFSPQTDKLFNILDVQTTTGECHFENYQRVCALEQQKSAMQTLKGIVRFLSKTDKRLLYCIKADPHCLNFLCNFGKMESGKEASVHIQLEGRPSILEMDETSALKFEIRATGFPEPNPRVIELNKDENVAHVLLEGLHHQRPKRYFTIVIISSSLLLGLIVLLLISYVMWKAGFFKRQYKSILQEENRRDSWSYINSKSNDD
Sequence of α4β1 (P05556 21-798): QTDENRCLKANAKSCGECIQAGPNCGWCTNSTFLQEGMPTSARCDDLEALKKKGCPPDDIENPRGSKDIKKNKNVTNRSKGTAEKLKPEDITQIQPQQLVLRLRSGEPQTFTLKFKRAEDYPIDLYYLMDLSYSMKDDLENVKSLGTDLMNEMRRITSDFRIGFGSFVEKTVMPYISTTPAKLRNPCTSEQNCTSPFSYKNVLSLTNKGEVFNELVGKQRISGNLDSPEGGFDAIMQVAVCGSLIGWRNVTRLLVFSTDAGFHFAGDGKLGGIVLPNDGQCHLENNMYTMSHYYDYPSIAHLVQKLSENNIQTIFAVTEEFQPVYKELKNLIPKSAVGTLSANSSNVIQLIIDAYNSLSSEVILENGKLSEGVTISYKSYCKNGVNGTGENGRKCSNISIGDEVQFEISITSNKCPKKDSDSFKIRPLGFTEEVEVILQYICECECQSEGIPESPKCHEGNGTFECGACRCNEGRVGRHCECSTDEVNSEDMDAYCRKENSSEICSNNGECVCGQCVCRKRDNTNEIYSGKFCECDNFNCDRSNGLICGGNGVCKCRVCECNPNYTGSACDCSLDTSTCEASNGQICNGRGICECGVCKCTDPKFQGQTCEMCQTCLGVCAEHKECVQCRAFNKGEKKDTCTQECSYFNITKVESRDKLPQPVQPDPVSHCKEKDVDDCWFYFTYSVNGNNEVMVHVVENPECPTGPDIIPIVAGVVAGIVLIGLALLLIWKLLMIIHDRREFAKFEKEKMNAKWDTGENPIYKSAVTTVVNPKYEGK
Description: Jurkat E6.1 human cells (Sigma #88042803) were cultured in RPMI 1640 HEPES medium (Invitrogen #22400-089) supplemented with 10% serum (Fetal Bovine Serum, Invitrogen #16140-071), 1 mM sodium pyruvate (Invitrogen #11360-070), 2 mM L-glutamine (Invitrogen #25030-081) and Penicillin-Streptomycin (Invitrogen #15140-122) at 100 units of penicillin and 100 μg of streptomycin per ml. The cells were washed two times in DMEM medium (ATCC #30-2002) supplemented with 0.1% BSA, 10 mM HEPES pH 7 and 1 mM MnCl2. The cells were re-suspended in supplemented DMEM medium at a density of 4×10^6 cells/ml.
A Nunc MaxiSorp plate was coated with rh VCAM-1/CD106 Fc chimera (R&D #862-VC) at 400 ng per well in 50 ul per well in 1×PBS and incubated at 4° C. overnight. The solution was then removed by shaking, blocked with 250 ul per well PBS containing 1% BSA, and incubated at 37° C. for 1 hr. The solution was removed by shaking. Peptides were diluted by serial dilution in a final volume of 50 ul per well (2× concentration). To each well, 50 ul of cells (200,000 cells) were added and the plate was incubated at 37° C., 5% CO2 for 30-45 min to allow cell adhesion. The wells were washed manually three times (100 ul per wash) with supplemented DMEM. After the final wash, 100 ul/well of supplemented DMEM and 10 ul/well of MTT reagent (ATTC cat#30-1010K) were added. The plate was incubated at 37° C., 5% CO2 for 2-3 hrs until a purple precipitate was visible. 100 ul of Detergent Reagent (ATTC cat#30-1010K) was added to each well. The plate was covered from the light, wrapped in Parafilm to prevent evaporation, and left overnight at room temperature in the dark. The plate was shaken for 5 min and the absorbance at 570 nm was measured. To calculate the dose response, the absorbance value of control wells not containing cells was subtracted from each test well.

α4β7 = molecular target: T1, α4β7 (Mus musculus, UniProt P26011+Q00651); assay: α4β7 Cell Adhesion Assay (Mouse), TK1 cells; format: cell-based
T1 construct: host or cells: TK1 mouse T cells
T1 sequence (Q00651 34-1039 limits assumed): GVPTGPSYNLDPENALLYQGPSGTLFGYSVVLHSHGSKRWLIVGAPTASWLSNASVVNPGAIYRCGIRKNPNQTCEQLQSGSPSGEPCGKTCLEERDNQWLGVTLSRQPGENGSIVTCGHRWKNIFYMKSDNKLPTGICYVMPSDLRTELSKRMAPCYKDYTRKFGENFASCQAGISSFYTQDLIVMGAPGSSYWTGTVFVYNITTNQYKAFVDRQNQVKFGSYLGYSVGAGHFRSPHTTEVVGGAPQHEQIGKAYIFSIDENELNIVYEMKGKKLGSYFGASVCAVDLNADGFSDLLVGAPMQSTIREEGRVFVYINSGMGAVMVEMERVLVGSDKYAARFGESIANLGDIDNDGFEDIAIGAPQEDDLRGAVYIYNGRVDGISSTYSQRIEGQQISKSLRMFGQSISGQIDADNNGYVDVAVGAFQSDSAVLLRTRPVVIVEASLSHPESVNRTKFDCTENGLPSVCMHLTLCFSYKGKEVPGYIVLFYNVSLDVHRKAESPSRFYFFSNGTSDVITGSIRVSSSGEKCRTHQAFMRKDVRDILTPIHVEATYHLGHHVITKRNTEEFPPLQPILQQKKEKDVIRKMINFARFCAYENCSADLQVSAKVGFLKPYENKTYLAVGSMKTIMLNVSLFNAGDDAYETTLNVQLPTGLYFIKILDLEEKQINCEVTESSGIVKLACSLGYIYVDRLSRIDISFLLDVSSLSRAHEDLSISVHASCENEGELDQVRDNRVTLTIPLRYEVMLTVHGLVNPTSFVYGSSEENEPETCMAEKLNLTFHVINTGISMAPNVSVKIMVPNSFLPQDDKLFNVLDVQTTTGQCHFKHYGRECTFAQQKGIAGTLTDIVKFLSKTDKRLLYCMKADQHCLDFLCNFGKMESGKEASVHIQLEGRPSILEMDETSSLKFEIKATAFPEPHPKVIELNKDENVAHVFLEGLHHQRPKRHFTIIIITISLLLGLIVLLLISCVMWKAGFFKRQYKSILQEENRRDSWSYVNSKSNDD
T1 sequence (P26011 20-806): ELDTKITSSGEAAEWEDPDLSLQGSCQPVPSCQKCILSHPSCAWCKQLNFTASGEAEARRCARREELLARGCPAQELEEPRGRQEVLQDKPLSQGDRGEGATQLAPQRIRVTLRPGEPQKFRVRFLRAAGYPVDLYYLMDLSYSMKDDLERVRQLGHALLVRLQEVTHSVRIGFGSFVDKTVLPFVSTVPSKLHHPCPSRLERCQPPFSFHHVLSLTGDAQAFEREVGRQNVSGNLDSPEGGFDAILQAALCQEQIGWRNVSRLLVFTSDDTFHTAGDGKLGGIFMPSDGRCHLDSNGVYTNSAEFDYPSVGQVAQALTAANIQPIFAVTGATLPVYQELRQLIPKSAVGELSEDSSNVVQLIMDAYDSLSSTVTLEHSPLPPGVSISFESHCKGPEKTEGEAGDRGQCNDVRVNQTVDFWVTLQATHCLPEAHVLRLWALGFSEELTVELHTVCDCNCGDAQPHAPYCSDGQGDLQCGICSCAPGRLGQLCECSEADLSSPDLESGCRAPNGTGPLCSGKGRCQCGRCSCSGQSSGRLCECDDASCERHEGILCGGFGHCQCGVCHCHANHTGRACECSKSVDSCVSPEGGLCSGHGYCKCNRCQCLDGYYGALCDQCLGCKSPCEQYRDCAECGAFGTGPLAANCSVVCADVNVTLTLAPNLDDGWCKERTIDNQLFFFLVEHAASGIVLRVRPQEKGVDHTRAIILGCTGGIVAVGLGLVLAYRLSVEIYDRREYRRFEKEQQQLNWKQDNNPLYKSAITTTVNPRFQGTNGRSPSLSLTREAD
Method in brief: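 Mouse TK1 cells in DMEM with 0.1% BSA, 10 mM HEPES pH 7 and 1 mM MnCl2 were allowed to adhere for 30-45 min at 37 °C to plates coated with recombinant human MAdCAM-1 Fc (200 ng/well) in the presence of serially diluted peptides. Adherent cells were quantified by MTT absorbance at 570 nm, with no-cell background subtracted for dose response.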

[1] = Table 4-B, read-out: Cell Adhesion α4β1 IC50
[2] = Table 4-B, read-out: Cell Adhesion α4β7 Mouse IC50
[3] = Table 3-B, Selectivity (α4β1), range classes, read-out: α4β1 cell IC50
[4] = Table 3-B, Potency (α4β7), range classes, read-out: α4β7 cell(MU) IC50

| Structure (SMILES) | pIC50 (α4β1; [1]) | pIC50 (α4β7; [2]) | pIC50 (α4β1; [3]) | pIC50 (α4β7; [4]) |
| --- | --- | --- | --- | --- |
| CC(=O)N[C@@H]1C(=O)N(C)[C@@H](CCCNC(=N)N)C(=O)N[C@@H](CO)C(=O)N[C@@H](CC(=O)O)C(=O)N[C@@H]([C@@H](C)O)C(=O)N[C@@H](CC(C)C)C(=O)N[C@H](C(=O)N[C@@H](Cc2c[nH]c3ccccc23)C(=O)N[C@@H](CCC(=O)O)C(=O)N[C@H](CCCCNC(=O)COCC(=O)NCCCC[C@@H](NC(=O)[C@H](CCC(=O)O)NC(=O)[C@H](Cc2c[nH]c3ccccc23)NC(=O)[C@H]2NC(=O)[C@H](CC(C)C)NC(=O)[C@H]([C@@H](C)O)NC(=O)[C@H](CC(=O)O)NC(=O)[C@H](CO)NC(=O)[C@H](CCCNC(=N)N)N(C)C(=O)[C@@H](NC(C)=O)C(C)(C)SSC2(C)C)C(N)=O)C(N)=O)C(C)(C)SSC1(C)C [compound 217, (Ac-Pen-N-Me-R-S-D-T-L-Pen-W-E-k-NH2)2-DIG] (I: Ac-[Pen][NMeR]SDTL[Pen]WE[dK]-NH2 / II: Ac-[Pen][NMeR]SDTL[Pen]WE[dK]-NH2; disulfide I:1-I:7, II:1-II:7 (inferred); linker I:10-II:10 via Diglycolyl (inferred)) | < 4.00 | 8.92 |  |  |
| CC(=O)N[C@@H]1C(=O)N(C)[C@@H](CCCNC(=N)N)C(=O)N[C@@H](CO)C(=O)N[C@@H](CC(=O)O)C(=O)N[C@@H]([C@@H](C)O)C(=O)N[C@@H](CC(C)C)C(=O)N[C@H](C(=O)N[C@@H](Cc2c[nH]c3ccccc23)C(=O)N[C@H](CCC(=O)O)C(=O)N[C@H](CCCCNC(=O)COCC(=O)NCCCC[C@@H](NC(=O)[C@@H](CCC(=O)O)NC(=O)[C@H](Cc2c[nH]c3ccccc23)NC(=O)[C@H]2NC(=O)[C@H](CC(C)C)NC(=O)[C@H]([C@@H](C)O)NC(=O)[C@H](CC(=O)O)NC(=O)[C@H](CO)NC(=O)[C@H](CCCNC(=N)N)N(C)C(=O)[C@@H](NC(C)=O)C(C)(C)SSC2(C)C)C(N)=O)C(N)=O)C(C)(C)SSC1(C)C [compound 68] (I: Ac-[Pen][NMeR]SDTL[Pen]W[dE][dK]-NH2 / II: Ac-[Pen][NMeR]SDTL[Pen]W[dE][dK]-NH2; disulfide I:1-I:7, II:1-II:7; linker I:10-II:10 via Diglycolyl) |  |  | < 4.00 | > 8.00 |
| CC(=O)N[C@@H]1C(=O)N(C)[C@@H](CCCNC(=N)N)C(=O)N[C@@H](CO)C(=O)N[C@@H](CC(=O)O)C(=O)N[C@@H]([C@@H](C)O)C(=O)N[C@@H](CC(C)C)C(=O)N[C@H](C(=O)N[C@@H](Cc2c[nH]c3ccccc23)C(=O)N[C@H](CCC(=O)O)C(=O)N[C@H](CCCCNC(=O)COCC(=O)NCCCC[C@@H](NC(=O)[C@@H](CCC(=O)O)NC(=O)[C@H](Cc2c[nH]c3ccccc23)NC(=O)[C@H]2NC(=O)[C@H](CC(C)C)NC(=O)[C@H]([C@@H](C)O)NC(=O)[C@H](CC(=O)O)NC(=O)[C@H](CO)NC(=O)[C@H](CCCNC(=N)N)N(C)C(=O)[C@@H](NC(C)=O)C(C)(C)SSC2(C)C)C(=O)O)C(=O)O)C(C)(C)SSC1(C)C [compound 216, (Ac-Pen-N-Me-R-S-D-T-L-Pen-W-e-k-OH)2-DIG] (I: Ac-[Pen][NMeR]SDTL[Pen]W[dE][dK]-OH / II: Ac-[Pen][NMeR]SDTL[Pen]W[dE][dK]-OH; disulfide I:1-I:7, II:1-II:7 (inferred); linker I:10-II:10 via Diglycolyl (inferred)) | < 4.00 | 9.00 |  |  |
| CC(=O)N[C@@H]1C(=O)N(C)[C@@H](CCCNC(=N)N)C(=O)N[C@@H](CO)C(=O)N[C@@H](CC(=O)O)C(=O)N[C@@H]([C@@H](C)O)C(=O)N[C@@H](CC(C)C)C(=O)N[C@H](C(=O)N[C@@H](Cc2c[nH]c3ccccc23)C(=O)N[C@@H](CCC(=O)O)C(=O)N[C@H](CCCCNC(=O)COCC(=O)NCCCC[C@@H](NC(=O)[C@H](CCC(=O)O)NC(=O)[C@H](Cc2c[nH]c3ccccc23)NC(=O)[C@H]2NC(=O)[C@H](CC(C)C)NC(=O)[C@H]([C@@H](C)O)NC(=O)[C@H](CC(=O)O)NC(=O)[C@H](CO)NC(=O)[C@H](CCCNC(=N)N)N(C)C(=O)[C@@H](NC(C)=O)C(C)(C)SSC2(C)C)C(N)=O)C(N)=O)C(C)(C)SSC1(C)C [compound 67] (I: Ac-[Pen][NMeR]SDTL[Pen]WE[dK]-NH2 / II: Ac-[Pen][NMeR]SDTL[Pen]WE[dK]-NH2; disulfide I:1-I:7, II:1-II:7; linker I:10-II:10 via Diglycolyl) |  |  | < 4.00 | > 8.00 |
| CC(=O)N[C@@H]1C(=O)N(C)[C@@H](CCCNC(=N)N)C(=O)N[C@@H](CO)C(=O)N[C@@H](CC(=O)O)C(=O)N[C@@H]([C@@H](C)O)C(=O)N[C@@H](CC(C)C)C(=O)N[C@H](C(=O)N[C@@H](Cc2c[nH]c3ccccc23)C(=O)N[C@@H](CCC(=O)O)CC(=O)N[C@H](CCCCNC(=O)COCC(=O)NCCCC[C@@H](NC(=O)C[C@H](CCC(=O)O)NC(=O)[C@H](Cc2c[nH]c3ccccc23)NC(=O)[C@H]2NC(=O)[C@H](CC(C)C)NC(=O)[C@H]([C@@H](C)O)NC(=O)[C@H](CC(=O)O)NC(=O)[C@H](CO)NC(=O)[C@H](CCCNC(=N)N)N(C)C(=O)[C@@H](NC(C)=O)C(C)(C)SSC2(C)C)C(N)=O)C(N)=O)C(C)(C)SSC1(C)C [compound 213, [Ac-Pen-(N-Me-Arg)-Ser-Asp-Thr-Leu-Pen-Trp-(β-homoGlu)-(D-Lys)-NH2]2-DIG] (I: Ac-[Pen][NMeR]SDTL[Pen]W[β3hE][dK]-NH2 / II: Ac-[Pen][NMeR]SDTL[Pen]W[β3hE][dK]-NH2; disulfide I:1-I:7, II:1-II:7; linker I:10-II:10 via Diglycolyl) | < 4.00 | 8.38 |  |  |
| CC(=O)N[C@@H]1C(=O)N(C)[C@@H](CCCNC(=N)N)C(=O)N[C@@H](CO)C(=O)N[C@@H](CC(=O)O)C(=O)N[C@@H]([C@@H](C)O)C(=O)N[C@@H](CC(C)C)C(=O)N[C@H](C(=O)N[C@@H](Cc2c[nH]c3ccccc23)C(=O)N[C@H](CCC(=O)O)C(=O)N[C@H](CCCCNC(=O)COCC(=O)NCCCC[C@@H](NC(=O)[C@@H](CCC(=O)O)NC(=O)[C@H](Cc2c[nH]c3ccccc23)NC(=O)[C@H]2NC(=O)[C@H](CC(C)C)NC(=O)[C@H]([C@@H](C)O)NC(=O)[C@H](CC(=O)O)NC(=O)[C@H](CO)NC(=O)[C@H](CCCNC(=N)N)N(C)C(=O)[C@@H](NC(C)=O)C(C)(C)SSC2(C)C)C(N)=O)C(N)=O)C(C)(C)SSC1(C)C [compound 211, (Ac-Pen-N-Me-R-S-D-T-L-Pen-W-e-k-NH2)2-DIG] (I: Ac-[Pen][NMeR]SDTL[Pen]W[dE][dK]-NH2 / II: Ac-[Pen][NMeR]SDTL[Pen]W[dE][dK]-NH2; disulfide I:1-I:7, II:1-II:7 (inferred); linker I:10-II:10 via Diglycolyl (inferred)) | < 4.00 | 8.14 |  |  |
| CC(=O)N[C@@H]1C(=O)N(C)[C@@H](CCCNC(=N)N)C(=O)N[C@@H](CO)C(=O)N[C@@H](CC(=O)O)C(=O)N[C@@H]([C@@H](C)O)C(=O)N[C@@H](CC(C)C)C(=O)N[C@H](C(=O)N[C@@H](Cc2ccc(C(C)(C)C)cc2)C(=O)N[C@@H](CCC(=O)O)CC(=O)N[C@H](CCCCNC(=O)COCC(=O)NCCCC[C@@H](NC(=O)C[C@H](CCC(=O)O)NC(=O)[C@H](Cc2ccc(C(C)(C)C)cc2)NC(=O)[C@H]2NC(=O)[C@H](CC(C)C)NC(=O)[C@H]([C@@H](C)O)NC(=O)[C@H](CC(=O)O)NC(=O)[C@H](CO)NC(=O)[C@H](CCCNC(=N)N)N(C)C(=O)[C@@H](NC(C)=O)C(C)(C)SSC2(C)C)C(N)=O)C(N)=O)C(C)(C)SSC1(C)C [compound 218, [Ac-Pen-(N-Me-Arg)-Ser-Asp-Thr-Leu-Pen-Phe(4-tBu)-(β-homoGlu)-(D-Lys)-NH2]2-DIG] (I: Ac-[Pen][NMeR]SDTL[Pen][Phe(4-tBu)][β3hE][dK]-NH2 / II: Ac-[Pen][NMeR]SDTL[Pen][Phe(4-tBu)][β3hE][dK]-NH2; disulfide I:1-I:7, II:1-II:7; linker I:10-II:10 via Diglycolyl) | < 4.00 | 9.30 |  |  |
